Assay results reported in patent US9156829B2, “Cycloalkyl and heterocycloalkyl compounds as orexin receptor antagonists” (Takeda Pharmaceutical Company Limited, priority 2014, dated 2015).

Experiments:
human orexin receptor 2 = human orexin receptor 2 (Homo sapiens (Human), UniProt O43614); experiment: Orexin antagonist activity, intracellular calcium FLIPR assay, RBL-2H3 cells expressing human orexin receptor 2; format: cell-based; settings: RBL-2H3 cells stably expressing human orexin receptor 2; orexin-A at approx. 80% maximal response; compound added 15 minutes before; read-out: Human Orexin2R IC50
Sequence of human orexin receptor 2 (O43614 whole entry): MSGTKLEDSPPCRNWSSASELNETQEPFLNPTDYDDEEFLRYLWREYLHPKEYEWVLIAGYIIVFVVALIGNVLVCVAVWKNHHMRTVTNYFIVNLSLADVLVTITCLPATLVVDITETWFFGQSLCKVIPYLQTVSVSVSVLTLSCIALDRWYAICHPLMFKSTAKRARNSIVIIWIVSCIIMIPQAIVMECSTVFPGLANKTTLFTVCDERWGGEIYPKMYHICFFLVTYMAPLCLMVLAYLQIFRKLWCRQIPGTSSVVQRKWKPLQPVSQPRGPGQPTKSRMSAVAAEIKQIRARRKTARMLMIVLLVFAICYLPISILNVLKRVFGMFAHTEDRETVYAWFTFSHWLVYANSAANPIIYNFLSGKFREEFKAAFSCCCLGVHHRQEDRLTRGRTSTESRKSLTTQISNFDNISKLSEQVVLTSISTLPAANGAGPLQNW

human orexin receptor 1 = human orexin receptor 1 (Homo sapiens (Human), UniProt O43613); experiment: Orexin antagonist activity, intracellular calcium FLIPR assay, RBL-2H3 cells expressing human orexin receptor 1; format: cell-based; settings: RBL-2H3 cells stably expressing human orexin receptor 1; orexin-A at approx. 80% maximal response; compound added 15 minutes before; read-out: Human Orexin1R IC50
Sequence of human orexin receptor 1 (O43613 whole entry): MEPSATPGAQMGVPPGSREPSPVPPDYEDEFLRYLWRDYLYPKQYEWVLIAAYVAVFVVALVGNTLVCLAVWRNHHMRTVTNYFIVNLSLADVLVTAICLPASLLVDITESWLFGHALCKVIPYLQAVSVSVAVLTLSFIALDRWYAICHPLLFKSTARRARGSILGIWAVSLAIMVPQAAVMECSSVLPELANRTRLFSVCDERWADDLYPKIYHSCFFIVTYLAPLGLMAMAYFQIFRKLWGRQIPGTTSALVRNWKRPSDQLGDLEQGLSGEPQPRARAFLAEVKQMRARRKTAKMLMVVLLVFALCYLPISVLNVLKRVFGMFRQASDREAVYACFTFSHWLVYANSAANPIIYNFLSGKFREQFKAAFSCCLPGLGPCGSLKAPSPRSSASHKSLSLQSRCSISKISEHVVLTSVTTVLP

SMILES	IC50 (human orexin receptor 2) [µM]	IC50 (human orexin receptor 1) [µM]
O=C(N[C@H]1CCC[C@@H]1Nc1cnc(C(F)(F)F)cn1)c1cc(F)ccc1-n1ccnn1 [Example 41, 5-Fluoro-2-(1H-1,2,3-triazol-1-yl)-N-[(1S,2S)-2-{[5-(trifluoromethyl)pyrazin-2-yl]amino}cyclopentyl]benzamide]	> 10	0.644
Cc1ccc(-n2nccn2)c(C(=O)NC2CCCC2Cc2ccc(C(F)(F)F)cn2)c1 (centres unmarked) [Example 26, 5-Methyl-2-(2H-1,2,3-triazol-2-yl)-N-(2-{[5-(trifluoromethyl)pyridin-2-yl]methyl}cyclopentyl)benzamide]	> 10	0.622
O=C(N[C@H]1CCC[C@@H]1Nc1cnc(C(F)(F)F)cn1)c1cc(Cl)ccc1-n1cccn1 [Example 59, 5-Chloro-2-(1H-pyrazol-1-yl)-N-[(1S,2S)-2-{[5-(trifluoromethyl)pyrazin-2-yl]amino}cyclopentyl]benzamide]	> 10	0.161
CCOc1ccc(C)nc1C(=O)N[C@H]1CCC[C@@H]1Nc1cnc(C(F)(F)F)cn1 [Example 30, 3-Ethoxy-6-methyl-N-[(1S,2S)-2-{[5-(trifluoromethyl)pyrazin-2-yl]amino}cyclopentyl]pyridine-2-carboxamide]	> 10	0.37
O=C(N[C@H]1CCC[C@@H]1Nc1cnc(C(F)(F)F)cn1)c1cc(Cl)ccc1-n1ccnn1 [Example 55, 5-Chloro-2-(1H-1,2,3-triazol-1-yl)-N-[(1S,2S)-2-{[5-(trifluoromethyl)pyrazin-2-yl]amino}cyclopentyl]benzamide]	> 10	0.761
O=C(N[C@H]1CCC[C@H]1Oc1cnc(C(F)(F)F)cn1)c1ccccc1-n1nccn1 [Example 19, 2-(2H-1,2,3-Triazol-2-yl)-N-[(1S,2R)-2-{[5-(trifluoromethyl)pyrazin-2-yl]oxy}cyclopentyl]benzamide]	6.11	0.757
O=C(N[C@H]1CCC[C@@H]1Nc1cnc(C(F)(F)F)cn1)c1ncccc1N1CCCCC1 [Example 51, 3-(Piperidin-1-yl)-N-[(1S,2S)-2-{[5-(trifluoromethyl)pyrazin-2-yl]amino}cyclopentyl]pyridine-2-carboxamide]	> 10	0.301
O=C(N[C@H]1CCC[C@@H]1Nc1cnc(C(F)(F)F)cn1)c1cc(F)ccc1-n1cccn1 [Example 47, 5-Fluoro-2-(1H-pyrazol-1-yl)-N-[(1S,2S)-2-{[5-(trifluoromethyl)pyrazin-2-yl]amino}cyclopentyl]benzamide]	> 10	0.445
O=C(N[C@H]1CCC[C@@H]1Nc1cnc(C(F)(F)F)cn1)c1c(Cl)cccc1-n1nccn1 [Example 40, 2-Chloro-6-(2H-1,2,3-triazol-2-yl)-N-[(1S,2S)-2-{[5-(trifluoromethyl)pyrazin-2-yl]amino}cyclopentyl]benzamide]	> 10	0.035
CC1(Nc2ncc(C(F)(F)F)cn2)CCCC1NC(=O)c1ncccc1-n1nccn1 (centres unmarked) [Example 154, N-(2-Methyl-2-{[5-(trifluoromethyl)pyrimidin-2-yl]amino}cyclopentyl)-3-(2H-1,2,3-triazol-2-yl)pyridine-2-carboxamide]	> 10	0.042
Cc1ccc(-n2nccn2)c(C(=O)N[C@H]2CCC[C@@H]2Nc2ccc(C(F)(F)F)nc2)c1 [Example 67, 5-Methyl-2-(2H-1,2,3-triazol-2-yl)-N-[(1S,2S)-2-{[6-(trifluoromethyl)pyridin-3-yl]amino}cyclopentyl]benzamide]	> 10	0.891
O=C(N[C@H]1CCC[C@@H]1Nc1ncc(C(F)(F)F)cn1)c1ccccc1Cl [Example 70, 2-Chloro-N-[(1S,2S)-2-{[5-(trifluoromethyl)pyrimidin-2-yl]amino}cyclopentyl]benzamide]	> 10	0.678
O=C(N[C@H]1CCC[C@@H]1Nc1ccc(C(F)(F)F)cn1)c1cc(F)ccc1-c1ncccn1 [Example 14, 5-Fluoro-2-(pyrimidin-2-yl)-N-[(1S,2S)-2-{[5-(trifluoromethyl)pyridin-2-yl]amino}cyclopentyl]benzamide]	> 10	0.089
Cc1noc(-c2ccccc2C(=O)N[C@H]2CCC[C@@H]2Nc2ncc(C(F)(F)F)cn2)n1 [Example 16, 2-(3-Methyl-1,2,4-oxadiazol-5-yl)-N-[(1S,2S)-2-{[5-(trifluoromethyl)pyrimidin-2-yl]amino}cyclopentyl]benzamide]	> 10	0.054
COc1cccc(OC)c1C(=O)N[C@H]1CCC[C@@H]1Nc1cnc(C(F)(F)F)cn1 [Example 34, 2,6-Dimethoxy-N-[(1S,2S)-2-{[5-(trifluoromethyl)pyrazin-2-yl]amino}cyclopentyl]benzamide]	> 10	0.523
O=C(N[C@H]1CCC[C@@H]1Nc1cnc(C(F)(F)F)cn1)c1ccccc1C(F)F [Example 65, 2-(Difluoromethyl)-N-[(1S,2S)-2-{[5-(trifluoromethyl)pyrazin-2-yl]amino}cyclopentyl]benzamide]	> 10	0.797
O=C(N[C@H]1CCC[C@@H]1Nc1ncc(C(F)(F)F)cn1)c1ccccc1-n1nccn1 [Example 18, 2-(2H-1,2,3-Triazol-2-yl)-N-[(1S,2S)-2-{[5-(trifluoromethyl)pyrimidin-2-yl]amino}cyclopentyl]benzamide]	> 10	0.057

Other lines, results leading:

IC50 (human orexin receptor 2) [µM]	IC50 (human orexin receptor 1) [µM]	SMILES
> 10	0.022	C[C@]1(Nc2cnc(C(F)(F)F)cn2)CCC[C@@H]1NC(=O)c1cc(F)ccc1-n1nccn1 [Example 84, 5-Fluoro-N-[(1S,2S)-2-methyl-2-{[5-(trifluoromethyl)pyrazin-2-yl]amino}cyclopentyl]-2-(2H-1,2,3-triazol-2-yl)benzamide]
1.4	2.5	C[C@@]1(Nc2cnc(C(F)(F)F)cn2)CCC[C@H]1NC(=O)c1ccccc1-n1nccn1 [Example 83, N-[(1R,2R)-2-Methyl-2-{[5-(trifluoromethyl)pyrazin-2-yl]amino}cyclopentyl]-2-(2H-1,2,3-triazol-2-yl)benzamide]
7.9	0.008	CC1(Nc2ncc(C(F)(F)F)cc2F)CCCC1NC(=O)c1ncccc1-n1nccn1 (centres unmarked) [Example 103, N-(2-{[3-Fluoro-5-(trifluoromethyl)pyridin-2-yl]amino}-2-methylcyclopentyl)-3-(2H-1,2,3-triazol-2-yl)pyridine-2-carboxamide]
> 10	0.068	C[C@]1(Nc2cnc(C(F)(F)F)cn2)CCC[C@@H]1NC(=O)c1ncccc1OC(F)(F)F [Example 90, N-[(1S,2S)-2-Methyl-2-{[5-(trifluoromethyl)pyrazin-2-yl]amino}cyclopentyl]-3-(trifluoromethoxy)pyridine-2-carboxamide]
> 10	0.236	O=C(N[C@H]1CC(F)(F)C[C@@H]1Nc1ccc(OC(F)F)cn1)c1ccccc1-n1nccn1 [Example 157, N-[(1S,2S)-2-{[5-(Difluoromethoxy)pyridin-2-yl]amino}-4,4-difluorocyclopentyl]-2-(2H-1,2,3-triazol-2-yl)benzamide]
> 10	0.094	CCOc1cnc(-c2ccccc2C(=O)N[C@H]2CCC[C@@H]2Nc2cnc(C(F)(F)F)cn2)nc1 [Example 135, 2-(5-Ethoxypyrimidin-2-yl)-N-[(1S,2S)-2-{[5-(trifluoromethyl)pyrazin-2-yl]amino}cyclopentyl]benzamide]
> 10	0.479	O=C(N[C@H]1CCC[C@@H]1Nc1ccc(C(F)(F)F)cn1)c1c(F)cccc1F [Example 72, 2,6-Difluoro-N-[(1S,2S)-2-{[5-(trifluoromethyl)pyridin-2-yl]amino}cyclopentyl]benzamide]
> 10	0.062	Cc1noc(-c2ccccc2C(=O)N[C@H]2CCC[C@@H]2Nc2ncc(C(F)(F)F)nc2C)n1 [Example 141, 2-(3-Methyl-1,2,4-oxadiazol-5-yl)-N-[(1S,2S)-2-{[3-methyl-5-(trifluoromethyl)pyrazin-2-yl]amino}cyclopentyl]benzamide]
> 10	0.83	COc1cccc(F)c1C(=O)N[C@H]1CCC[C@@H]1Nc1cnc(C(F)(F)F)cn1 [Example 136, 2-Fluoro-6-methoxy-N-[(1S,2S)-2-{[5-(trifluoromethyl)pyrazin-2-yl]amino}cyclopentyl]benzamide]
> 10	0.029	Cc1nnc(-c2ccccc2C(=O)N[C@H]2CCC[C@]2(C)Nc2cnc(C(F)(F)F)cn2)o1 [Example 160, 2-(5-Methyl-1,3,4-oxadiazol-2-yl)-N-[(1S,2S)-2-methyl-2-{[5-(trifluoromethyl)pyrazin-2-yl]amino}cyclopentyl]benzamide]
> 10	0.997	CCc1cnc(N[C@H]2CCC[C@@H]2NC(=O)c2ccccc2-n2nccn2)cn1 [Example 114, N-[(1S,2S)-2-[(5-Ethylpyrazin-2-yl)amino]cyclopentyl]-2-(2H-1,2,3-triazol-2-yl)benzamide]
> 10	0.021	Cc1cc(C(F)(F)F)cnc1N[C@H]1CCC[C@@H]1NC(=O)c1ncccc1-n1nccn1 [Example 124, N-[(1S,2S)-2-{[3-Methyl-5-(trifluoromethyl)pyridin-2-yl]amino}cyclopentyl]-3-(2H-1,2,3-triazol-2-yl)pyridine-2-carboxamide]
> 10	0.175	O=C(N[C@H]1CCC[C@@H]1Nc1ccc(OC(F)(F)F)cn1)c1ccccc1-n1nccn1 [Example 115, 2-(2H-1,2,3-Triazol-2-yl)-N-[(1S,2S)-2-{[5-(trifluoromethoxy)pyridin-2-yl]amino}cyclopentyl]benzamide]
> 10	0.029	O=C(N[C@H]1CCC[C@@H]1Nc1ncc(C(F)(F)F)cc1Cl)c1ccccc1-n1nccn1 [Example 106, N-[(1S,2S)-2-{[3-Chloro-5-(trifluoromethyl)pyridin-2-yl]amino}cyclopentyl]-2-(2H-1,2,3-triazol-2-yl)benzamide]
